From patent US20230028293A1, “MULTIPLE MYELOMA COMBINATION THERAPIES BASED ON PROTEIN TRANSLATION INHIBITORS AND IMMUNOMODULATORS” (The Regents of the University of Colorado, a body corporate, priority 2019, published 2023)

Experiments:
Assay type in all cases: cell-based
[1] = test system: MM cell lines; assay: Two-drug combination matrix in MM cell lines, ZIP synergy; conditions: for ZIP δ-score for synergy with omacetaxine: BET inhibitor with omacetaxine; for synergy of translation inhibitor with pomalidomide: MM.1S and H929 cells
[2] = test system: protein translation in MM cell lines and primary MM cells; assay: OP-Puro protein translation assay in vitro; conditions: omacetaxine 50 nM 2.5 h, bortezomib 6 h, 24 h, 48 h
Protocol: To examine whether myeloma cells depend on inherently high protein synthesis, the O-Propargyl-puromycin (OP-Puro) assay was used to measure the rate of amino-acid incorporation into translating ribosomes by flow cytometry.
Protein synthesis levels were determined in vitro utilizing the puromycin analog O-propargyl-puromycin (OP-Puro) in the protein synthesis assay kit (Cayman Chemical) according to manufacturer instructions. For in vivo protein synthesis, engrafted NSG mice were injected IP with 500 μg puromycin (Gibco), then euthanized after 1.5 h, marrow was flushed, and cells stained with anti-puromycin antibody (12D10, Alexa-488, Millipore Sigma), followed by flow cytometry.

[3] = test system: MM1.S cells; assay: Timecourse of apoptosis and cell death by Annexin V and DAPI flow cytometry
Text: FIG. 2A depicts the timecourse of induction of apoptosis and cell death by omacetaxine in MM1.S cells as measured by Annexin V and DAPI staining by flow cytometry.
FIG. 10A depicts the timecourse of induction of apoptosis and cell death by pomalidomide in MM1.S cells as measured by annexin V and DAPI staining by flow cytometry.

CCS(=O)(=O)Nc1ccc(Oc2ccc(F)cc2F)c(-c2cn(C)c(=O)c3[nH]ccc23)c1 [ABBV-075]
ZIP δ-score for synergy with pomalidomide ([1]; ABBV-075 with pomalidomide, MM.1S cell line): 6.597 | ZIP δ-score for synergy with omacetaxine ([1]; MM.1S cell line): 12.02

Cc1sc2c(c1C)C(c1ccc(Cl)cc1)=N[C@@H](CC(=O)OC(C)(C)C)c1nnc(C)n1-2 [JQ1]
ZIP δ-score for synergy with omacetaxine ([1]; MM.1S cell line): 17.56 | ZIP δ-score for synergy with pomalidomide ([1]; JQ1 100 nM with pomalidomide 1.25 μM, U266, 96 h): 21.18

Cc1sc2c(c1C)C(c1ccc(Cl)cc1)=N[C@@H](CC(=O)Nc1ccc(O)cc1)c1nnc(C)n1-2 [OTX015]
ZIP δ-score for synergy with omacetaxine ([1]; MM.1S cell line): 7.64 | ZIP δ-score for synergy with pomalidomide ([1]; OTX015 with pomalidomide, MM cell lines): 1.84

COc1ccc(C[C@H]2NC[C@H](O)[C@H]2OC(C)=O)cc1 [anisomycin]
synergy of translation inhibitor with pomalidomide [1]: synergistic

CC(C)C[C@H](NC(=O)[C@H](Cc1ccccc1)NC(=O)c1cnccn1)B(O)O [bortezomib]
ability to inhibit translation in myeloma cell lines [2]: did not occur | ability to inhibit translation in myeloma cell lines ([2]; listed as Boitezomib): did not change translation levels

C[C@@H]1C[C@@H]([C@H](O)CC2CC(=O)NC(=O)C2)C(=O)[C@@H](C)C1 [cycloheximide]
synergy of translation inhibitor with pomalidomide [1]: synergistic

C/C(=C\[C@H](C)C(=O)C[C@H](O)CC1CC(=O)NC(=O)C1)[C@@H]1OC(=O)/C=C/CC/C=C/C=C\[C@@H]1C [lactimidomycin]
synergy of translation inhibitor with pomalidomide [1]: synergistic

Nc1cccc2c1C(=O)N(C1CCC(=O)NC1=O)C2=O (stereo not shown) [pomalidomide]
time at which cell death began [3]: 24 h | time at which induction of apoptosis started [3]: 24 h
